Laboratory results taken from article PMC3264873 (Pharmaceutical Research, 2011).
Where two headings read alike, the source gives them in different places. Starred links: 1 amine or outer side, 2 acyl side, 3 side chain; linkers in the order of their positions; H or OH if unused. Positions of bridges follow the written chain, without caps; N, C: chain ends. Non-standard residues stand in square brackets, D forms with d. Residues, ends and D or L forms follow the SMILES beside them. Trp(2-yl) = O=C([C@H](Cc1c([*:3])[nH]c2ccccc12)N[*:1])[*:2]; Leu(4R-OH,5-OH) = C[C@](O)(CO)C[C@H](N)C(=O)O; cisHyp = O=C(O)[C@@H]1C[C@H](O)CN1

Columns and labels:
[1] = target: T1, OATP1B1 (Homo sapiens, UniProt Q9Y6L6); assay: Screening for inhibition of OATP1B1-mediated estradiol-17β-glucuronide uptake; details: for Classification as OATP1B1 inhibitor (more than 50% inhibition of E17βG uptake): 20 μM test compound
T1 sequence (Q9Y6L6 1-691): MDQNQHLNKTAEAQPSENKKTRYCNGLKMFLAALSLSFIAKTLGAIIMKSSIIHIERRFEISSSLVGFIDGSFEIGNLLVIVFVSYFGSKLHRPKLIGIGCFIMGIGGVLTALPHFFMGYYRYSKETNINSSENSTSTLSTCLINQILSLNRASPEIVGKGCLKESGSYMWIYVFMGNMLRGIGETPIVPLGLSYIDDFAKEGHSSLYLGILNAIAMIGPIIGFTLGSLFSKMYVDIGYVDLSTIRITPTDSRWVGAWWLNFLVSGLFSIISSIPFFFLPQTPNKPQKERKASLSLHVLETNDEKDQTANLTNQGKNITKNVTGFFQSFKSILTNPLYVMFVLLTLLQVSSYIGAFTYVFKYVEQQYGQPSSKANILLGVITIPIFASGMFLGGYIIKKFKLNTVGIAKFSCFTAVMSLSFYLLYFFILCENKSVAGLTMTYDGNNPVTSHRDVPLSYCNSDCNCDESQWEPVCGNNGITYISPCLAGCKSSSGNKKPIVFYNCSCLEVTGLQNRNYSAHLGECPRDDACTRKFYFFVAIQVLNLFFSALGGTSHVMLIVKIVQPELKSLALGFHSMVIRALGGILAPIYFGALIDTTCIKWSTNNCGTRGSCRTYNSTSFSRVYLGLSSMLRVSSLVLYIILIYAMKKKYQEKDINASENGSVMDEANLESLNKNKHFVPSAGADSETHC

[2] = cited from earlier work; for Imax, maximum systemic plasma concentration of the inhibitor: amprenavir recalculated from fosamprenavir data, ref [23]–[28]; for Fa, fraction of the inhibitor dose absorbed (maximum oral bioavailability): ref [23]–[25]
[3] = target: T1, OATP1B1; assay: Calculation of R-values; details: for R-value E: ka = 0.03, Fa published value (lopinavir Fa = 1); for Range of the eight R-values A–H: all eight calculation variants; for Average (mean) R-value: mean of the eight R-values A–H
[4] = clinical co-administration with the inhibitor; ref [37],[27],[43],[51],[46]; cited from earlier work
[5] = target: T1, OATP1B1; assay: Concentration-dependent inhibition of OATP1B1-mediated atorvastatin uptake; assay type: cell-based
[6] = ref [3],[23],[24]; cited from earlier work
[7] = target: T1, OATP1B1; assay: Michaelis-Menten uptake kinetics in HEK293 cells stably expressing OATP1B1; assay type: cell-based
[8] = target: T1, OATP1B1; details: IC50 from another study and cell system; ref [3]; cited from earlier work

C[C@H](CCC(=O)NCC(=O)O)[C@H]1CC[C@H]2[C@@H]3CC[C@@H]4C[C@H](O)CC[C@]4(C)[C@H]3C[C@H](O)[C@]12C [Glycodeoxycholate]
Classification as OATP1B1 inhibitor (more than 50% inhibition of E17βG uptake) [1]: inhibitors

C[C@@H]1NC(=O)[C@H](C[C@@](C)(O)CO)NC(=O)[C@@H]2Cc3c([nH]c4ccccc34)SC[C@H](NC(=O)[C@@H]([C@H](C)O)NC1=O)C(=O)N1C[C@@H](O)C[C@H]1C(=O)N[C@@H](C)C(=O)N2 [Phalloidin] (cyclo(A[dT]C[cisHyp]A[Trp(2-yl)][Leu(4R-OH,5-OH)]); thioether 3-6)
Classification as OATP1B1 inhibitor (more than 50% inhibition of E17βG uptake) [1]: not identified as inhibitors | inhibition at 5 min, 100 µM ([1]; human, pH 7.4): 49%

CC(=O)S[C@@H]1CC2=CC(=O)CC[C@]2(C)[C@H]2CC[C@@]3(C)[C@@H](CC[C@@]34CCC(=O)O4)[C@H]12 [Spironolactone]
Classification as OATP1B1 inhibitor (more than 50% inhibition of E17βG uptake) [1]: inhibitors

C[C@H](CCC(=O)NCCS(=O)(=O)O)[C@H]1CC[C@H]2[C@@H]3CC[C@@H]4C[C@H](O)CC[C@]4(C)[C@H]3C[C@H](O)[C@]12C [Taurodeoxycholate]
Classification as OATP1B1 inhibitor (more than 50% inhibition of E17βG uptake) [1]: inhibitors

CCOc1nc2cccc(C(=O)O)c2n1Cc1ccc(-c2ccccc2-c2nnn[nH]2)cc1 [Candesartan]
Classification as OATP1B1 inhibitor (more than 50% inhibition of E17βG uptake) [1]: inhibitors

CNC(=O)c1cccnc1 [N-methylnicotinamide]
Classification as OATP1B1 inhibitor (more than 50% inhibition of E17βG uptake) [1]: inhibitors

Nc1ncnc2c1ncn2CCOCP(=O)(O)O [Adefovir]
Classification as OATP1B1 inhibitor (more than 50% inhibition of E17βG uptake) [1]: inhibitors

CCOc1cc(CC(=O)N[C@@H](CC(C)C)c2ccccc2N2CCCCC2)ccc1C(=O)O [Repaglinide]
Classification as OATP1B1 inhibitor (more than 50% inhibition of E17βG uptake) [1]: classified as OATP1B1 inhibitors

Cc1ccc(C)c(OCCCC(C)(C)C(=O)O)c1 [Gemfibrozil]
Imax, maximum systemic plasma concentration of the inhibitor [2]: 99.9 µM | Fa, fraction of the inhibitor dose absorbed (maximum oral bioavailability) [2]: 0.98 | R-value B ([3]; Eq. 2 (IC50), ka = 0.03, Fa = 1, International Transporter Consortium method): 1.05 | R-value D ([3]; Eq. 2 (IC50), ka = 0.1, Fa = 1): 1.08 | R-value C ([3]; Eq. 2 (IC50), ka = 0.1, Fa published value (lopinavir Fa = 1)): 1.08 | R-value F ([3]; Eq. 3 (Ki), ka = 0.03, Fa = 1): 1.11 | R-value E ([3]; Eq. 3 (Ki)): 1.11 | R-value H ([3]; Eq. 3 (Ki), ka = 0.1, Fa = 1, Hirano et al. method): 1.19 | R-value G ([3]; Eq. 3 (Ki), ka = 0.1, Fa published value (lopinavir Fa = 1)): 1.19 | Range of the eight R-values A–H [3]: 1.05–1.19 | Average (mean) R-value [3]: 1.11 | Fold AUC change Atorvastatin [4]: 1.2 fold | IC50 [5]: 156 µM | Ki [5]: 68.1 µM | Fu, fraction of the inhibitor that is unbound [6]: 0.05

C[C@]12CC[C@@H]3c4ccc(O)cc4CC[C@H]3[C@@H]1CC[C@@H]2O[C@@H]1O[C@H](C(=O)O)[C@@H](O)[C@H](O)[C@H]1O [Estradiol-17-β-glucuronide]
Vmax of OATP1B1-mediated uptake ([7]; E17βG 1–200 μM, 96-well plates, HEK293-OATP1B1): 1.37 (± 0.12) pmol/min/mg protein | Uptake in OATP1B1 cells relative to mock-transfected cells ([7]; at 5 min (E17βG) and 2 min (atorvastatin)): at least 8 times

COC(=O)N[C@H](C(=O)N[C@@H](Cc1ccccc1)[C@@H](O)CN(Cc1ccc(-c2ccccn2)cc1)NC(=O)[C@@H](NC(=O)OC)C(C)(C)C)C(C)(C)C [Atazanavir]
Imax, maximum systemic plasma concentration of the inhibitor [2]: 4.47 µM | Fa, fraction of the inhibitor dose absorbed (maximum oral bioavailability) [2]: 0.68 | R-value B [3]: 2.38 | R-value C [3]: 3.63 | R-value D [3]: 4.68 | R-value F [3]: 3.43 | R-value G [3]: 5.64 | R-value H [3]: 7.49 | R-value E ([3]; Eq. 3 (Ki)): 2.87 | Average (mean) R-value [3]: 4.02 | IC50 [5]: 1.61 µM | Ki [5]: 0.91 µM

Ivermectin
Classification as OATP1B1 inhibitor (more than 50% inhibition of E17βG uptake) [1]: inhibitors

Cc1cccc(C)c1OCC(=O)N[C@@H](Cc1ccccc1)[C@@H](O)C[C@H](Cc1ccccc1)NC(=O)[C@H](C(C)C)N1CCCNC1=O [Lopinavir]
R-value B [3]: 1.76 | R-value C [3]: 2.56 | R-value D [3]: 2.56 | R-value F [3]: 2.74 | R-value G [3]: 4.58 | R-value H [3]: 4.58 | R-value E ([3]; Eq. 3 (Ki)): 2.74 | Range of the eight R-values A–H [3]: 1.76–4.58 | Average (mean) R-value [3]: 2.91 | R-value B calculated in the literature [8]: 9.2 | IC50 [5]: 0.74 µM | Ki [5]: 0.32 µM

COC(=O)C1=C(C)NC(C)=C(C(=O)OCCN(C)Cc2ccccc2)C1c1cccc([N+](=O)[O-])c1 (stereo not shown) [Nicardipine]
Classification as OATP1B1 inhibitor (more than 50% inhibition of E17βG uptake) [1]: inhibitors
